Legend:
[1] = molecular target: T1, calcium-dependent large conductance potassium channels (maxi K^+) (Rattus norvegicus, UniProt Q62976); experiment: Potassium channel activation, whole cell patch clamp in isolated rat detrusor cells; type: cell-based
T1 construct: Rat detrusor cells were isolated in a manner previously described for guinea-pig detrusor; from tissue; host or cells: freshly isolated detrusor smooth muscle cells from urinary bladder dome of male Sprague-Dawley rats (endogenous channel)
T1 sequence (Q62976 whole entry): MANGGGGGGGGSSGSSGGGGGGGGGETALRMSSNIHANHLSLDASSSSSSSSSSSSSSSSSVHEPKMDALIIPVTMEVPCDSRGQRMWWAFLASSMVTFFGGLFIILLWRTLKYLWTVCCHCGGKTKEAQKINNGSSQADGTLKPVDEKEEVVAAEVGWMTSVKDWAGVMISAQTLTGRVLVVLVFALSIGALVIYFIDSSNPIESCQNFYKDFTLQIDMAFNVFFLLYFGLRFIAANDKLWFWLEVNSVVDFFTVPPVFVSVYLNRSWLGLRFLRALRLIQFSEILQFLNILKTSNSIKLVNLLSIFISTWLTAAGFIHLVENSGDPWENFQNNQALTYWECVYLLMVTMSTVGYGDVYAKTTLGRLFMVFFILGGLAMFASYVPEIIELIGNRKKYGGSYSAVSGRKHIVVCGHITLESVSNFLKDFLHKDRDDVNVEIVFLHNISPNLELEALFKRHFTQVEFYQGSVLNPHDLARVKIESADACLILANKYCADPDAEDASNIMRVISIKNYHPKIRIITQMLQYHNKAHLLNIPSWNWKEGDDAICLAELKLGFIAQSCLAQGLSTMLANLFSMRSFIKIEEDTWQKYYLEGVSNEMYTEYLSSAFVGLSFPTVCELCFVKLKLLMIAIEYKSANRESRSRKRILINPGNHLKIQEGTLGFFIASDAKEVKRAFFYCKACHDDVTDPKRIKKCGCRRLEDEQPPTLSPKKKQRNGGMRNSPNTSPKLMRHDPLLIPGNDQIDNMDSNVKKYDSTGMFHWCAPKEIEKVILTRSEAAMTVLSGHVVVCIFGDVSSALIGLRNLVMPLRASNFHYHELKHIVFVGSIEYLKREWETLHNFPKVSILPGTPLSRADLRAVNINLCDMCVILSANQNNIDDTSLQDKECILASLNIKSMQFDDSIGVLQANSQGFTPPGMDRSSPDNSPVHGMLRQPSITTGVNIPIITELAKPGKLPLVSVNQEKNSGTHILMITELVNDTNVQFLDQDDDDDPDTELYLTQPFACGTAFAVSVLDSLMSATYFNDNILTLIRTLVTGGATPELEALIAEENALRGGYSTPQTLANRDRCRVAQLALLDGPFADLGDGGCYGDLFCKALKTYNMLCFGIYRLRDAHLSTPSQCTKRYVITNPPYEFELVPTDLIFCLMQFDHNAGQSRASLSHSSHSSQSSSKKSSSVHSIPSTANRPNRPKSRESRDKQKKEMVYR
Experimental: Potassium channel activation by compounds of the present invention was established by examining the effect of the compound of Example 1 on calcium-dependent large conductance potassium channels (maxi K^+) as follows:
Rat detrusor cells were isolated in a manner previously described for guinea-pig detrusor (Sheldon and Argentieri, 1995). Male Sprage-Dawley rats (200-400 grams) were euthanized by CO2 inhalation and exsanguination. Their urinary bladders were rapidly removed and placed in 37° C. physiological solution with the following composition (mM): Na glutamate (80.0), NaCl (54.7), KCl (5.0), NaHCO3 (25.0), MgCl2.2H2 O (2.5), D-glucose (11.8) and CaCl2 (0.2) gassed with […], 95%/5% for a final pH of 7.4. The dome of the bladder was isolated from the trigon region and the mucosa was removed. This tissue was then cut into 2-3 mm wide strips and placed in fresh buffer for 1 hour. Tissues were then transferred into 10.0 ml of an isolation buffer containing the above composition plus collagenase type VIII (1.0 mg/ml) and pronase (0.25 mg/ml). After 10 minutes the isolation buffer was replaced with fresh isolation buffer for an additional 10 min. […]
Whole cell recordings were made using broken patch assess. […] After stability was achieved control currents were recorded. […] Currents were recorded for 5 to 10 minutes or until compound effects reached steady state. […]

[2] = test system: Isolated Rat Bladder Strips; experiment: Inhibition of contractions in isolated rat bladder strips; type: cell-based
Experimental: Sprague-Dawley rats (150-200 g) are rendered unconscious by CO2 asphyxiation and then euthanized by cervical dislocation. […] The bladder is opened and then cut into strips 1-2 mm in width and 7-10 mm in length. The strips are subsequently suspended in a 10 mL tissue bath under an initial resting tension of 1.5 g. The strips are held in place by two surgical clips one of which is attached to a fixed hook while the other is attached to an isometric force transducer. […] The carbachol is then washed out and the tissue allowed to relax to its resting level of activity. Following a further 30 min period of recovery an additional 15 mM KCl are introduced into the tissue bath. […] Following stabilization of this enhanced level of contractile activity, incremental increases in the concentration of test compound or vehicle are introduced into the tissue bath. Contractile activity is measured for each compound or vehicle concentration during the last minute of a 30 minute challenge.

[3] = test system: swelling induced chloride channel current; experiment: Chloride channel blockade, swelling induced chloride current in bladder cells; type: cell-based, guinea pig
Description: Normal human bronchial epithelial cells (NHBE) were commercially available from Clonetics Corporation (San Diego, Calif.) and bladder cells were isolated from rat bladder.
The normal external solution contained (in mM): N-methyl d-Glucamine chloride (NMDGCl). 140, MgCl2 2, CaCl2 2 and 4-(2-hydroxyethyl)-1-piperazine ethanesulfonic acid (HEPES) 10. The normal pipette solution contained (in mM): NMDGCI. 125, HEPES 10, MgCl2 2, ethylenebis(oxonitrilo)tetraacetate (EGTA) 2, and ATPMg 5, the pH adjusted to 7.3 with TRIS. To identify the leak conductance from depolarization, internal Cl ion concentration was reduced to 40 mM using glutamic acid (ECl approximately -31 mV according Nernst equation). The osmolarity for standard external solution was about 280 mOsm. […]
The whole cell voltage clamp recording techniques were utilized to record membrane ionic currents. […] Membrane currents were recorded using an Axopatch 200A Patch Clamp Amplifier (Axon Instruments, Inc., Foster City, Calif.). […]
A: current traces from -100 to 60 mV were recorded in the isotonic, low osmolarity (210 mOsm) and after application of 20 μM Example 1 in same cell. […] Panel B is four superimposed ramp test traces recorded in the presence of control, hypotonic, Example 1 and washout solutions. The C panel depicts the time course of the effect of Example 1 on ICl,swelling at 60 mV monitored from the same cell.

## COc1ccc(Cl)cc1C(=O)NCCc1ccc(S(=O)(=O)NC(=O)NC2CCCCC2)cc1 [glyburide, reference compound]
[1]; glyburide 5 μM added to the superfusate
  effect of glyburide on outward current: no effect

## C/C(=C\c1ccc(C(F)(F)F)cc1)C(=O)Nc1ccccc1C(=O)O [1, Step 4]
[2]; aorta/bladder IC50 ratio, selectivity
  IC50 (A)/IC50 (B): 39.6

## C/C(=C\c1ccc(C(F)(F)F)cc1)C(=O)Nc1ccccc1C(=O)[O-].[Li+] [Example 1, Step 4, (E)-2-[2-Methyl-3-(4-trifluoromethyl-phenyl)-acryloylamino]-benzoic acid lithium salt]
[3]; 20 μM, guinea pig bladder cell, low osmolarity 210 mOsm
  effect on swelling induced chloride current: significantly reduced swelling induced chloride current
[3]; Cavia porcellus, Bladder, Swelling ICl, 60 mV, 210 mOsm
  inhibition at 20 µM: 67%
[1]; 10 μM in superfusate, isolated rat bladder cells
  effect on outward current (maxi K^+ current): increase in outward current that was reversible upon washout

## COc1ccc(/C=C/C(=O)Nc2ccccc2C(=O)O)cc1OC [Tranilast, reference compound]
[2]; bladder/aorta IC50 ratios, Table 1
  smooth muscle relaxant potency and bladder selectivity: not to be a potent or bladder selective smooth muscle relaxant

Source: patent publication US6127392A, “Anthranilic acid analogs” (American Home Products Corporation, priority 1998, dated 2000)
